Reference: patent US9930890B2 (priority 2010, dated 2018)

What was measured:
Phytophthora infestans = format: in vivo; conditions: tomato plants, protective spray, active ingredient concentration 100 ppm, evaluation 7 days after inoculation; 0% = control, 100% = no infection
[1] = for logp [a]: pH 2.7; for logp [b]: pH 7.8

Row | Structure (SMILES) | Eff. % (Phytophthora infestans) | logp [a] [1] | logp [b] [1]
1 | CC(C)ON=Cc1cccc(C2CC(c3csc(C4CCN(C(=O)Cn5nc(C(F)F)cc5C(F)F)CC4)n3)=NO2)c1 (mixture of isomers) [I-6] | 100% |  | 
2 | Cc1cc(C(F)(F)F)nn1CC(=O)N1CCC(c2nc(C3=NOC(c4cccc(C=NOC(C)C)c4)C3)cs2)CC1 (mixture of isomers) [I-8] | 100% |  | 
3 | CC(=NOC(C)C)c1cccc(C2CC(c3csc(C4CCN(C(=O)Cn5nc(C(F)(F)F)cc5C)CC4)n3)=NO2)c1 (mixture of isomers) [I-9] | 100% |  | 
4 | CCON=Cc1cccc(C2CC(c3csc(C4CCN(C(=O)Cn5nc(C(F)(F)F)cc5C)CC4)n3)=NO2)c1 (mixture of isomers) [I-11] | 100% | 3.8[a] | 
5 | CCON=Cc1cccc(C2CC(c3csc(C4CCN(C(=O)Nc5cc(Cl)ccc5C)CC4)n3)=NO2)c1 (mixture of isomers) [I-12] | 95% |  | 
6 | Cc1ccc(Cl)cc1NC(=O)N1CCC(c2nc(C3=NOC(c4cccc(C=NOC(C)C)c4)C3)cs2)CC1 (mixture of isomers) [I-13] | 100% | 4.4[a] | 
7 | CC(=NOC(C)C)c1cccc(C2CC(c3csc(C4CCN(C(=O)Cn5nc(C(F)F)cc5C(F)F)CC4)n3)=NO2)c1 (mixture of isomers) [I-20] | 100% |  | 
8 | CCON=Cc1cccc(C2CC(c3csc(C4CCN(C(=O)Cn5nc(C(F)F)cc5C(F)F)CC4)n3)=NO2)c1 (mixture of isomers) [I-24] | 100% |  | 
9 | CC(=NOC(C)C)c1ccccc1C1CC(c2csc(C3CCN(C(=O)Cn4nc(C(F)F)cc4C(F)F)CC3)n2)=NO1 (mixture of isomers) [I-28] | 100% |  | 
10 | CC(=NOC(C)C)c1ccccc1C1CC(c2csc(C3CCN(C(=O)Cn4nc(C(F)(F)F)cc4C)CC3)n2)=NO1 (mixture of isomers) [I-30] | 100% |  | 
11 | CCON=Cc1ccccc1C1CC(c2csc(C3CCN(C(=O)Nc4cc(Cl)ccc4C)CC3)n2)=NO1 (mixture of isomers) [I-33] | 100% |  | 
12 | Cc1ccc(Cl)cc1NC(=O)N1CCC(c2nc(C3=NOC(c4ccccc4C=NOC(C)C)C3)cs2)CC1 (mixture of isomers) [I-37] | 100% |  | 
13 | Cc1cc(C(F)(F)F)nn1CC(=O)N1CCC(c2nc(C3=NOC(c4ccccc4C=NOC(C)C)C3)cs2)CC1 (mixture of isomers) [I-39] | 100% |  | 
14 | CC(C)ON=Cc1ccccc1C1CC(c2csc(C3CCN(C(=O)Cn4nc(C(F)F)cc4C(F)F)CC3)n2)=NO1 (mixture of isomers) [I-42] | 100% |  | 
15 | COCC[S+]([O-])Cc1ccccc1C1CC(c2csc(C3CCN(C(=O)Cn4nc(C(F)F)cc4C(F)F)CC3)n2)=NO1 (mixture of isomers) [I-56] | 94% | 2.52[a] | 
16 | CC1(c2ccccc2OS(C)(=O)=O)CC(c2csc(C3CCN(C(=O)Cn4nc(C(F)F)cc4C(F)F)CC3)n2)=NO1 (racemic) [I-43] | 94% | 3.16[a], | 3.09[b]
17 | Cc1cc(C(F)F)nn1CC(=O)N1CCC(c2nc(C3=NOC(C)(c4ccccc4OS(C)(=O)=O)C3)cs2)CC1 (racemic) [I-44] | 94% | 2.86[a], | 2.8[b]
18 | COCCS(=O)(=O)Cc1ccccc1C1CC(c2csc(C3CCN(C(=O)Cn4nc(C(F)(F)F)cc4C)CC3)n2)=NO1 (racemic) [I-45] | 94% | 3.64[a] | 
19 | Cc1ccc(S(=O)(=O)Oc2ccccc2C2(C)CC(c3csc(C4CCN(C(=O)Cn5nc(C(F)F)cc5C(F)F)CC4)n3)=NO2)cc1 (racemic) [I-48] | 94% | 4.31[a], | 4.15[b]
20 | Cc1ccc(S(=O)(=O)Oc2ccccc2C2(C)CC(c3csc(C4CCN(C(=O)Cn5nc(C(F)F)cc5C)CC4)n3)=NO2)cc1 (racemic) [I-49] | 94% | 4.05[a], | 3.9[b]
21 | CS(=O)(=O)Oc1ccc(F)c(C2CC(c3csc(C4CCN(C(=O)Cn5nc(C(F)F)cc5C(F)F)CC4)n3)=NO2)c1F (racemic) [I-50] | 94% | 2.95[a], | 2.88[b]
22 | Cc1cc(C(F)F)nn1CC(=O)N1CCC(c2nc(C3=NOC(c4ccccc4OS(C)(=O)=O)C3)cs2)CC1 (racemic) [I-51] | 97% | 2.59[a], | 2.61[b]
23 | Cc1ccc(C)c(NC(=O)N2CCC(c3nc(C4=NOC(c5c(Cl)cccc5OS(C)(=O)=O)C4)cs3)CC2)c1 (racemic) [I-52] | 94% | 3.35[a], | 3.25[b]
24 | N#CCOc1ccc(Cl)cc1C1CC(c2csc(C3CCN(C(=O)Cn4nc(C(F)F)cc4C(F)F)CC3)n2)=NO1 (racemic) [I-58] |  | 3.27[a], | 3.23[b]
25 | CS(=O)(=O)Oc1ccc(Cl)cc1C1CC(c2csc(C3CCN(C(=O)Cn4nc(C(F)F)cc4C(F)F)CC3)n2)=NO1 (racemic) [I-59] |  | 3.27[a], | 3.25[b]
26 | O=C(Cn1nc(C(F)F)cc1C(F)F)N1CCC(c2nc(C3=NOC(c4ccccc4OCC#Cc4cccc5ccccc45)C3)cs2)CC1 (centres unmarked) [I-2] | 100% | 4.81[a], | 4.68[b]

Row | Structure (SMILES) | Eff. % (Phytophthora infestans) | logp [a] [1] | logp [b] [1]
27 | Cc1ccc(C2CC(c3csc(C4CCN(C(=O)Cn5nc(C(F)(F)F)cc5C)CC4)n3)=NO2)c(OS(C)(=O)=O)c1 (centres unmarked) [I-66] |  | 3.26[a], | 3.21[b]
28 | Cc1ccc(OS(C)(=O)=O)c(C2CC(c3csc(C4CCN(C(=O)Cn5nc(C(F)F)cc5C(F)F)CC4)n3)=NO2)c1 (centres unmarked) [I-67] |  | 3.22[a], | 3.11[b]
29 | C#CCOCc1cccc(F)c1C1CC(c2csc(C3CCN(C(=O)Cn4nc(C(F)F)cc4C(F)F)CC3)n2)=NO1 (centres unmarked) [I-68] |  | 3.3[a] | 
30 | CC(=O)OCc1cccc(F)c1C1CC(c2csc(C3CCN(C(=O)Cn4nc(C(F)F)cc4C(F)F)CC3)n2)=NO1 (centres unmarked) [I-69] |  | 3.12[a] | 
31 | CS(=O)(=O)Oc1cc(Cl)ccc1C1CC(c2csc(C3CCN(C(=O)Cn4nc(C(F)F)cc4C(F)F)CC3)n2)=NO1 (centres unmarked) [I-70] | 97% | 3.27[a], | 3.27[b]
32 | N#CCOc1cc(Cl)ccc1C1CC(c2csc(C3CCN(C(=O)Cn4nc(C(F)F)cc4C(F)F)CC3)n2)=NO1 (centres unmarked) [I-71] | 100% | 3.23[a], | 3.22[b]
33 | Cc1ccc(C2CC(c3csc(C4CCN(C(=O)Cn5nc(C(F)F)cc5C(F)F)CC4)n3)=NO2)c(OS(C)(=O)=O)c1 (centres unmarked) [I-72] |  | 3.2[a], | 3.12[b]
34 | Cc1cc(C(F)F)n(CC(=O)N2CCC(c3nc(C4=NOC(c5ccccc5OS(C)(=O)=O)C4)cs3)CC2)n1 (centres unmarked) [I-73] |  | 2.65[a], | 2.58[b]
35 | Cc1cc(C(F)(F)F)nn1CC(=O)N1CCC(c2nc(C3=NOC(c4c(F)ccc(OS(C)(=O)=O)c4F)C3)cs2)CC1 (centres unmarked) [I-79] |  | 3.02[a], | 2.94[b]
36 | N#CCOc1ccc(F)c(C2CC(c3csc(C4CCN(C(=O)Cn5nc(C(F)F)cc5C(F)F)CC4)n3)=NO2)c1F (centres unmarked) [I-80] |  | 2.96[a], | 2.85[b]
37 | COc1cccc(OS(C)(=O)=O)c1C1(C)CC(c2csc(C3CCN(C(=O)Cn4nc(C(F)F)cc4C(F)F)CC3)n2)=NO1 (centres unmarked) [I-88] |  | 3.17[a], | 3.11[b]
38 | COCC[S+]([O-])Cc1ccccc1C1CC(c2csc(C3CCN(C(=O)Cn4nc(C(F)(F)F)cc4C)CC3)n2)=NO1 (centres unmarked) [I-90] |  | 2.53[a] | 
39 | Cc1cc(OS(C)(=O)=O)c(C2(C)CC(c3csc(C4CCN(C(=O)Cn5nc(C(F)F)cc5C(F)F)CC4)n3)=NO2)cc1C (centres unmarked) [I-91] |  | 3.63[a], | 3.58[b]
40 | COc1ccc(OS(C)(=O)=O)c(C2(C)CC(c3csc(C4CCN(C(=O)Cn5nc(C(F)F)cc5C(F)F)CC4)n3)=NO2)c1OC (centres unmarked) [I-92] |  | 3.28[a], | 3.25[b]
41 | C=CCOCc1ccccc1C1CC(c2csc(C3CCN(C(=O)Cn4nc(C(F)(F)F)cc4C)CC3)n2)=NO1 (centres unmarked) [I-93] | 95% | 3.84[a] | 
42 | C=CCOCc1ccccc1C1CC(c2csc(C3CCN(C(=O)Cn4nc(C(F)F)cc4C(F)F)CC3)n2)=NO1 (centres unmarked) [I-94] | 100% | 3.63[a] | 
43 | Cc1cc(C(F)(F)F)nn1CC(=O)N1CCC(c2nc(C3=NOC(c4cccc(OCC#N)c4)C3)cs2)CC1 (centres unmarked) [I-95] | 100% | 3.06[a], | 2.97[b]
44 | Cc1cc(C(F)(F)F)nn1CC(=O)N1CCC(c2nc(C3=NOC(c4ccc(OS(C)(=O)=O)cc4)C3)cs2)CC1 (centres unmarked) [I-96] | 95% | 2.9[a], | 2.81[b]
45 | CCS(=O)(=O)Oc1ccc(C2CC(c3csc(C4CCN(C(=O)Cn5nc(C(F)F)cc5C(F)F)CC4)n3)=NO2)cc1 (centres unmarked) [I-105] |  | 2.97[a], | 2.96[b]
46 | O=C(Cn1nc(C(F)F)cc1C(F)F)N1CCC(c2nc(C3=NOC(c4ccc(OS(=O)(=O)C5CC5)cc4)C3)cs2)CC1 (centres unmarked) [I-106] |  | 3.06[a], | 3.05[b]
47 | Cc1ccc(OCC#N)c(C2CC(c3csc(C4CCN(C(=O)Cn5nc(C(F)F)cc5C(F)F)CC4)n3)=NO2)c1 (centres unmarked) [I-141] |  | 3.17[a], | 3.15[b]
48 | Cc1ccc(C2CC(c3csc(C4CCN(C(=O)Cn5nc(C(F)(F)F)cc5C)CC4)n3)=NO2)c(OCC#N)c1 (centres unmarked) [I-142] |  | 3.29[a], | 3.22[b]
49 | Cc1cc(C(F)F)nn1CC(=O)N1CCC(c2nc(C3=NOC(c4ccccc4OCC#N)C3)cs2)CC1 (centres unmarked) [I-143] |  | 2.6[a], | 2.61[b]
50 | Cc1ccc(C2CC(c3csc(C4CCN(C(=O)Cn5nc(C(F)F)cc5C(F)F)CC4)n3)=NO2)c(OCC#N)c1 (centres unmarked) [I-144] |  | 3.15[a], | 3.13[b]
51 | CS(=O)(=O)Oc1c(Cl)cccc1C1CC(c2csc(C3CCN(C(=O)Cn4nc(C(F)F)cc4C(F)F)CC3)n2)=NO1 (centres unmarked) [I-145] |  | 3.19[a], | 3.19[b]
52 | N#CCOc1c(Cl)cccc1C1CC(c2csc(C3CCN(C(=O)Cn4nc(C(F)F)cc4C(F)F)CC3)n2)=NO1 (centres unmarked) [I-146] |  | 3.14[a], | 3.26[b]
